According to ChEMBL document CHEMBL1862790, “Optimisation of fenarimol series for the treatment of Chagas disease”:
pIC50: −log10 of the molar value.

How the values were obtained:
Trypanosoma cruzi [1] = experiment: microbe, parasite or virus in culture; assay type: functional, Tulahuen LacZ, Clone C4; conditions: Trypanosoma cruzi, Tulahuen LacZ, Clone C4
[2] = DNDI: Cytotoxicity against L-6 rat myoblasts from skeletal muscle cells; conditions: L6 rat skeletal muscle myoblast cells, IC50
Trypanosoma cruzi [3] = experiment: microbe, parasite or virus in culture; assay type: functional, organism-based, Tulahuen LacZ, Clone C4; conditions: Trypanosoma cruzi, Tulahuen LacZ, Clone C4

Row | IC90 (Trypanosoma cruzi [1]) | pIC50 (Trypanosoma cruzi [3]) | Compound | pIC50 [2]
1 | 64 nM | 7.59 | Fc1cc(Cl)ccc1C(NC1CCN(c2ccc(F)c(C(F)(F)F)c2)CC1)c1cccnc1 (stereo unspecified) | 4.23
2 | 96 nM | 7.38 | COc1cncc(N2CCC(NC(c3ccc(Cl)cc3)c3cccnc3)CC2)c1 (stereo unspecified) | 4.23
3 | 28 nM | 8.05 | Cc1noc(C)c1C(=O)NC1CCN(C(c2ccc(C(F)(F)F)cc2)c2cccnc2)CC1 (stereo unspecified) | < 4.00
4 | 25 nM | 8.12 | Fc1cc(Cl)ccc1C(NC1CCN(c2ccc(Cl)cc2)CC1)c1cccnc1 (stereo unspecified) | 4.33
5 | 85 nM | 7.28 | Cn1cc(CN2CCC(NC(c3ccc(Cl)cc3)c3cccnc3)CC2)c(C(F)(F)F)n1 (stereo unspecified) | 4.29
6 | 35 nM | 7.70 | Fc1cc(Cl)ccc1N1CCC(NC(c2ccc(Cl)cc2)c2cccnc2)CC1 (stereo unspecified) | 4.25
7 | > 90 nM | 7.21 | Fc1ccccc1OC1CCN(C(c2ccc(C(F)(F)F)cc2)c2cccnc2)CC1 (stereo unspecified) | 4.17
8 | 176 nM | 7.81 | Cc1nocc1C(=O)NC1CCN(C(c2ccc(C(F)(F)F)cc2)c2cccnc2)CC1 (stereo unspecified) | 4.19
9 | 92 nM | 7.27 | CCn1cc(C(NC2CCN(c3ccc(C(F)(F)F)cc3)CC2)c2cccnc2)cn1 (stereo unspecified) | < 4.00
10 | 84 nM | 7.59 | Clc1ccc(C(NC2CCN(c3ccc(Br)cn3)CC2)c2cccnc2)cc1 (stereo unspecified) | 4.21
11 | 41 nM | 7.72 | FC(F)(F)c1ccc(N(CC2CCN(c3ccc(Cl)cc3)CC2)c2cccnc2)cc1 | 4.12
12 | 86 nM | 7.22 | N#Cc1ccnc(N2CCC(NC(c3ccc(Cl)cc3)c3cccnc3)CC2)n1 (stereo unspecified) | 4.24
13 | 3160 nM | 5.74 | CC(O)C(C)N1CCC(NC(c2ccc(Cl)cc2)c2cccnc2)CC1 (stereo unspecified) | < 4.00
14 | 24 nM | 8.10 | Fc1cc(Cl)ccc1C(NC1CCN(c2ccc(OC(F)(F)F)cc2)CC1)c1cccnc1 (stereo unspecified) | 4.32
15 | 63 nM | 7.65 | Fc1cc(Cl)ccc1C(NC1CCN(c2nccc(C(F)(F)F)n2)CC1)c1cccnc1 (stereo unspecified) | 4.26
16 | 93 nM | 7.39 | FC(F)(F)c1ccc(C(c2cccnc2)N2CCC(Oc3ccccc3Cl)CC2)cc1 (stereo unspecified) | 4.22
17 | 44.5 nM | 7.68 | N#Cc1cnc(N2CCC(NC(c3cccnc3)c3ccc(Cl)cc3F)CC2)s1 (stereo unspecified) | 4.25
18 | 67 nM | 7.55 | CC(C)(C)OC(=O)N1CCC(CN(c2ccc(C(F)(F)F)cc2)c2cccnc2)CC1 | 4.29
19 | 64.5 nM | 7.77 | Fc1cc(Cl)ccc1C(NC1CCN(c2ccccc2C(F)(F)F)CC1)c1cccnc1 (stereo unspecified) | 4.24
20 | 11 nM | 8.22 | FC(F)(F)c1ccc(N2CCC(NC(c3cccnc3)c3cnn(Cc4ccccc4)c3)CC2)cc1 (stereo unspecified) | 4.29
21 | 86 nM | 7.37 | O=C(c1ccccc1)N1CCC(CN(c2ccc(C(F)(F)F)cc2)c2cccnc2)CC1 | 4.29
22 | 328 nM | 7.00 | CCn1cc(C(NC2CCN(c3ccc(F)c(F)c3)CC2)c2cccnc2)cn1 (stereo unspecified) | 4.21
23 | 8660 nM | 5.51 | CC(C)(C)N1CCC(NC(c2ccc(Cl)cc2)c2cccnc2)CC1 (stereo unspecified) | < 4.00

Row | IC90 (Trypanosoma cruzi [1]) | pIC50 (Trypanosoma cruzi [3]) | Compound | pIC50 [2]
24 | 28.5 nM | 7.92 | Cc1cc(C(=O)NC2CCN(C(c3ccc(C(F)(F)F)cc3)c3cccnc3)CC2)n(C)n1 (stereo unspecified) | 4.26
25 | 72 nM | 7.55 | Fc1ccc(N2CCC(NC(c3cccnc3)c3ccc(Cl)cc3F)CC2)cc1Cl (stereo unspecified) | 4.26
26 | 93.5 nM | 7.49 | Fc1cnc(N2CCC(NC(c3cccnc3)c3ccc(Cl)cc3F)CC2)nc1 (stereo unspecified) | 4.13
27 | > 10000 nM | 5.38 | CS(=O)(=O)c1ccc(N2CCC(NC(c3cccnc3)c3cnn(CC(F)(F)F)c3)CC2)cc1 (stereo unspecified) | < 4.00
28 | 98 nM | 7.18 | Clc1ccc(CN2CCC(NC(c3ccc(Cl)cc3)c3cccnc3)CC2)cc1 (stereo unspecified) | 4.69
29 | 47 nM | 7.68 | N#Cc1cc(N2CCC(NC(c3cccnc3)c3ccc(Cl)cc3F)CC2)ccc1F (stereo unspecified) | 4.42
30 | 27.5 nM | 7.96 | FC(F)(F)c1ccc(N2CCC(NC(c3ccc(Cl)cc3)c3cccnc3)CC2)cc1 (stereo unspecified) | 4.27
31 | 53 nM | 7.72 | Fc1ccc(N2CCC(NC(c3cccnc3)c3ccc(Cl)cc3F)CC2)cc1 (stereo unspecified) | 4.26
32 | 42 nM | 7.85 | Fc1ccc(N2CCC(NC(c3cccnc3)c3ccc(Cl)cc3F)CC2)cc1F (stereo unspecified) | 4.47
33 | 95 nM | 7.44 | O=S(=O)(c1ccc(C(F)(F)F)cc1)N1CCC(NC(c2cccnc2)c2ccc(Cl)cc2F)CC1 (stereo unspecified) | 4.75
34 | > 100 nM | 7.23 | FC(F)(F)c1ccc(C(c2cccnc2)N2CCC(Oc3cccc(Cl)c3)CC2)cc1 (stereo unspecified) | 4.21
35 | 249 nM | 6.99 | Cn1cc(C(NC2CCN(c3ccc(C(F)(F)F)cc3)CC2)c2cccnc2)cn1 (stereo unspecified) | < 4.00
36 | 1020 nM | 6.25 | CC(C)(O)CN1CCC(NC(c2ccc(Cl)cc2)c2cccnc2)CC1 (stereo unspecified) | < 4.00
37 | > 100 nM | 7.15 | NC(=O)c1cccc(N2CCC(NC(c3cccnc3)c3ccc(Cl)cc3F)CC2)c1 (stereo unspecified) | < 4.00
38 | > 100 nM | 7.19 | FC(F)(F)Cn1cc(C(NC2CCN(c3ccc(OC(F)(F)F)cc3)CC2)c2cccnc2)cn1 (stereo unspecified) | 4.18
39 | 93 nM | 7.32 | Fc1cc(Cl)ccc1C(NC1CCN(Cc2ccc(C(F)(F)F)cc2)CC1)c1cccnc1 (stereo unspecified) | 4.58
40 | 22 nM | 8.14 | COc1ccc(N2CCC(NC(c3cccnc3)c3ccc(Cl)cc3F)CC2)cc1F (stereo unspecified) | 4.32
41 | 50 nM | 7.49 | Fc1ccc(N2CCC(NC(c3cccnc3)c3ccc(Cl)cc3F)CC2)c(C(F)(F)F)c1 (stereo unspecified) | 4.23
42 | 76 nM | 7.37 | CC(=O)C(C)N1CCC(NC(c2ccc(Cl)cc2)c2cccnc2)CC1 (stereo unspecified) | 4.06
43 | 10 nM | 8.22 | O=C(NC1CCN(C(c2ccc(C(F)(F)F)cc2)c2cccnc2)CC1)c1ccccc1C(F)(F)F (stereo unspecified) | < 4.00
44 | 36.5 nM | 7.80 | Cn1cc(C(=O)NC2CCN(C(c3ccc(C(F)(F)F)cc3)c3cccnc3)CC2)c(C(F)(F)F)n1 (stereo unspecified) | 4.27
45 | 88 nM | 7.34 | FC(F)(F)Cn1cc(C(NC2CCN(c3ccc(C(F)(F)F)cc3)CC2)c2cccnc2)cn1 (stereo unspecified) | 4.15
46 | 63 nM | 7.62 | Fc1ccc(N2CCC(NC(c3ccc(Cl)cc3)c3cccnc3)CC2)cc1C(F)(F)F (stereo unspecified) | 4.28

Row | IC90 (Trypanosoma cruzi [1]) | pIC50 (Trypanosoma cruzi [3]) | Compound | pIC50 [2]
47 | > 100 nM | 7.12 | NC(=O)c1ccccc1N1CCC(NC(c2cccnc2)c2ccc(Cl)cc2F)CC1 (stereo unspecified) | 4.14
48 | 298 nM | 6.99 | CCn1cc(C(NC2CCN(c3ccc(OC(F)(F)F)cc3)CC2)c2cccnc2)cn1 (stereo unspecified) | 4.13
49 | 90 nM | 7.32 | N#Cc1ccccc1OC1CCN(C(c2ccc(C(F)(F)F)cc2)c2cccnc2)CC1 (stereo unspecified) | 4.24
50 | 31 nM | 7.74 | Cc1nc(C)c(C(=O)NC2CCN(C(c3ccc(C(F)(F)F)cc3)c3cccnc3)CC2)s1 (stereo unspecified) | 4.25
51 | 19 nM | 8.15 | CSc1ccc(N2CCC(NC(c3ccc(Cl)cc3)c3cccnc3)CC2)cc1 (stereo unspecified) | 4.52
52 | 92 nM | 7.41 | Fc1cc(Cl)ccc1C(NC1CCN(Cc2ccc(Cl)cc2Cl)CC1)c1cccnc1 (stereo unspecified) | 4.37
53 | 81 nM | 7.54 | CC(C)n1cc(C(NC2CCN(c3ccc(C(F)(F)F)cc3)CC2)c2cccnc2)cn1 (stereo unspecified) | 4.11
54 | 30 nM | 7.68 | Fc1ccc(OC2CCN(C(c3ccc(C(F)(F)F)cc3)c3cccnc3)CC2)cc1 (stereo unspecified) | 4.62
55 | 88 nM | 7.47 | Fc1cnc(N2CCC(NC(c3ccc(Cl)cc3)c3cccnc3)CC2)nc1 (stereo unspecified) | 4.24
56 | > 100 nM | 7.12 | CC(c1ccc(C(F)(F)F)cc1)N1CCC(NC(c2cccnc2)c2ccc(Cl)cc2F)CC1 (stereo unspecified) | 4.71
57 | 30.5 nM | 7.77 | Fc1ccccc1N1CCC(NC(c2ccc(C(F)(F)F)cc2)c2cccnc2)CC1 (stereo unspecified) | 4.27
58 | > 100 nM | 7.07 | Cc1noc(C)c1C(=O)N1CCC(CN(c2ccc(C(F)(F)F)cc2)c2cccnc2)CC1 | 4.14
59 | > 100 nM | 7.58 | FC(F)(F)c1ccc(C(c2cccnc2)N2CCC(Oc3ccccc3)CC2)cc1 (stereo unspecified) | 4.26
60 | 50 nM | 7.72 | Fc1cc(Cl)cc(N2CCC(NC(c3cccnc3)c3ccc(Cl)cc3F)CC2)c1 (stereo unspecified) | 4.27
61 | 76 nM | 7.46 | Clc1ccc(C(NC2CCN(c3ccc(Cl)cn3)CC2)c2cccnc2)cc1 (stereo unspecified) | 4.18
62 | 25 nM | 7.77 | N#Cc1cnc(N2CCC(NC(c3ccc(Cl)cc3)c3cccnc3)CC2)s1 (stereo unspecified) | 4.31
63 | > 10000 nM | 5.22 | CCn1cc(C(NC2CCN(c3ccc(S(C)(=O)=O)cc3)CC2)c2cccnc2)cn1 (stereo unspecified) | < 4.00
64 | 600 nM | 6.64 | CCC(C(C)O)N1CCC(NC(c2ccc(Cl)cc2)c2cccnc2)CC1 (stereo unspecified) | < 4.00
65 | 570 nM | 6.58 | Fc1cc(Cl)ccc1C(NC1CCN(c2nc3ccccc3s2)CC1)c1cccnc1 (stereo unspecified) | < 4.00
66 | 597 nM | 6.50 | CC(c1ccccc1)N1CCC(NC(c2cccnc2)c2ccc(Cl)cc2F)CC1 (stereo unspecified) | 4.72
67 | 4380 nM | 6.43 | COc1ccc(CN2CCC(NC(c3cccnc3)c3ccc(Cl)cc3F)CC2)cc1 (stereo unspecified) | 4.28
